Experimental data as given in patent publication US4283527A, “Erythromycylamine 11,12-carbonate and derivatives thereof” (Pfizer Inc., priority 1980, dated 1981).
Like-named read-outs stand apart in the source and are kept apart here.

Legend:
Serratia marcescens = conditions: strain 63A017
Hemophilus influenzae = conditions: strain 54A036
Enterobacter cloacea = conditions: strain 67B009
Streptococcus pneumoniae = conditions: strain 02J012
Enterobacter aeruginosa = conditions: strain 67A040
Neisseria sicca = conditions: strain 66C000
Pasteurella multocida = conditions: strain 59A001
Streptococcus faecalis = conditions: strain 02A006
Bacillus subtilis = conditions: strain 06A001
Klebsiella oxytoca = conditions: strain 53D024
Providentia retgerii = conditions: strain 77CA025
Providentia stuarti = conditions: strain 77A013
Morgani morgansus = conditions: strain 97A001

9(S)-Erythromycylamine 11,12-Carbonate
MIC (Serratia marcescens): > 50 µg/mL
MIC (Hemophilus influenzae): 3.12 µg/mL
MIC (Enterobacter cloacea): > 50 µg/mL
MIC (Streptococcus pneumoniae): 0.10 µg/mL
MIC (Streptococcus pyogenes; strain 02C040): 0.78 µg/mL
MIC (Streptococcus pyogenes; strain 02C203): < .02 µg/mL
MIC (Escherichia coli; strain 51A125): 25 µg/mL
MIC (Escherichia coli; strain 51A129): 25 µg/mL
MIC (Escherichia coli; strain 51A266): 25 µg/mL
MIC (Escherichia coli; strain 51A470): 0.78 µg/mL
MIC (Enterobacter aeruginosa): 50 µg/mL
MIC (Neisseria sicca): 3.12 µg/mL
MIC (Pseudomonas aeruginosa; strain 52A104): > 50 µg/mL
MIC (Pseudomonas aeruginosa; strain 52A663): > 50 µg/mL
MIC (Pasteurella multocida): 0.39 µg/mL
MIC (Streptococcus faecalis): 0.39 µg/mL
MIC (Bacillus subtilis): 0.10 µg/mL
MIC (Klebsiella pneumoniae; strain 53A009): 50 µg/mL
MIC (Klebsiella pneumoniae; strain 53A031): 50 µg/mL
MIC (Klebsiella oxytoca): > 50 µg/mL
MIC (Providentia retgerii): > 50 µg/mL
MIC (Providentia stuarti): > 50 µg/mL
MIC (Staphylococcus epidermis; strain 01B037R, R = resistant to erythromycin): > 50 µg/mL
MIC (Staphylococcus epidermis; strain 01B111): 0.20 µg/mL
MIC (Staphylococcus epidermis; strain 01B126R, R = resistant to erythromycin): > 50 µg/mL
MIC (Staphylococcus aureus; strain 01A005): 0.20 µg/mL
MIC (Staphylococcus aureus; strain 01A052): 0.20 µg/mL
MIC (Staphylococcus aureus; strain 01A110R, R = resistant to erythromycin): > 50 µg/mL
MIC (Staphylococcus aureus; strain 01A400R, R = resistant to erythromycin): 12.5 µg/mL
MIC (Morgani morgansus): > 50 µg/mL
